Data on 32 compounds can be found in patent US8796244B2, “Imidazopyridine derivatives as inhibitors of receptor tyrosine kinases” (Astex Therapeutics Ltd, priority 2008, dated 2014).

Molecules are shown by their SMILES. Where a name gives a salt, the structure may show the parent alone. Read-outs that look alike come from different tables or passages of the source.

Test [1] relates to parental wild-type Ba/F3 cells. The test is described as follows: Ba/F3 (WT) cell proliferation assay (Alamar Blue). It counts as cell-based. Particulars: Mus musculus. (In general: The colour change of resazurin is a common sign of viable cells or microbes.)
Test [2] deals with LP-1 cell line (FGF-1/Heparin induced pERK). Kind of test: Cell-based pERK ELISA, LP-1 cells. As to conditions: Homo sapiens; for IC50: LP-1, read-out: LP-1 pERK ELISA (μM). For orientation: In an ELISA, binding on a coated surface is turned into a signal by an enzyme label.
Where [3] appears, read: BaF3, read-out: BaF3 WT prolif, % inhibition.
[4] abbreviates: BaF3, 72 hours, Alamar Blue, read-out: BaF3 WT prolif.
Where [5] appears, read: LP-1, read-out: LP-1 pERK ELISA, % inhibition.
Where [6] appears, read: BaF3, 72 h, read-out: BaF3 WT prolif (μM).

As for `CCNC(=O)Nc1cccc(-c2cnc3cc(-c4ncccn4)ccn23)c1` [Compound 280], the inhibition (in general, the drop in the measured response relative to a control, in per cent) at 3 µM in test [1] (setting [3]) turned out to be 74%. The IC50 in test [2] was 0.35 µM.
Consider `COCCc1nnc(-c2ccn3c(-c4cccc(NC(=O)NCC(F)(F)F)c4)cnc3c2)s1` [Compound 319], for which the IC50 stood at 0.15 µM in test [1] (setting [4]) and 0.012 µM in test [2].
With `Cn1cncc1C#Cc1ccn2c(-c3cc(NC(=O)NCC(F)(F)F)ccc3F)cnc2c1` [Compound 327], in test [1] (setting [3]), the inhibition at 10 µM was 30%. Besides, in test [2], the IC50 was found to be 0.31 µM.
In the same order, the values of `Cn1cncc1C#Cc1ccn2c(-c3cccc(NC(=O)NC4CC4)c3)cnc2c1` [Compound 329] are 31% and 0.23 µM.
Turning to `COc1ccnc(-c2ccn3c(-c4cccc(NC(=O)NCC(F)(F)F)c4)cnc3c2)n1` [Compound 336], the results for the IC50 in test [1] (setting [4]) and in test [2] were 0.46 µM and 0.074 µM, respectively.
Turning to `NC(=O)Nc1cccc(-c2cnc3cc(-c4ncccn4)ccn23)c1` [Compound 337], in test [1] (setting [3]), the inhibition at 10 µM came out at 23%. The IC50 in test [2] is 1.5 µM.
With `O=C(NCC(F)(F)F)Nc1cccc(-c2cnc3cc(-c4nnc(C5CCCO5)s4)ccn23)c1` (stereo not shown) [Example 1, 1-(3-{7-[5-(Tetrahydrofuran-2-yl)-[1,3,4]thiadiazol-2-yl]imidazo[1,2-a]pyridin-3-yl}-phenyl)-3-(2,2,2-trifluoroethyl)urea], the IC50 in test [1] (setting [4]) amounted to 0.92 µM; in test [2], 0.0074 µM.
On to `CCOC(=O)C(C)(C)n1cc(-c2ccn3c(-c4cccc(NC(=O)NCC(F)(F)F)c4)cnc3c2)cn1` [Example 2, 2-Methyl-2-[4-(3-{3-[3-(2,2,2-trifluoroethyl)ureido]phenyl}imidazo [1,2-a]pyridin-7-yl)pyrazol-1-yl] propionic acid ethyl ester], for which the inhibition at 10 µM in test [1] (setting [3]) is 12%. Further, the inhibition at 0.003 µM in test [2] (setting [5]) came out at 62%.
As to `O=C(NCC(F)(F)F)Nc1cccc(-c2cnc3cc(-c4ccccn4)ccn23)c1` [Example 3, 1-[3-(7-Pyridin-2-ylimidazo[1,2-a]pyridinyl)phenyl]-3-(2,2,2-trifluoroethyl)urea], the IC50 in test [1] (setting [4]) was 0.16 µM; in test [2], 0.0088 µM.
Consider `O=C(NCC(F)(F)F)Nc1cccc(-c2cnc3cc(-c4cnn(C5CCNCC5)c4)ccn23)c1` [Example 4, 1-{3-[7-(1-Piperidin-4-yl-1H-pyrazol-4-yl)-imidazo[1,2-a]pyridin-3-yl]phenyl}-3-(2,2,2-trifluoroethyl)urea hydrochloride], for which the inhibition at 10 µM in test [1] (setting [3]) was found to be 51%. Besides, the IC50 in test [2] is 0.077 µM.
Take `CC(C)(C(=O)O)n1cc(-c2ccn3c(-c4cccc(NC(=O)NCC(F)(F)F)c4)cnc3c2)cn1` [Example 5, 2-Methyl-2-[4-(3-{3-[3-(2,2,2-trifluoroethyl)ureido]phenyl}imidazo [1,2-a]pyridin-7-yl)pyrazol-1-yl]propionic acid]: in test [1] (setting [3]), the inhibition at 10 µM was determined as 0%. The inhibition at 1 µM in test [2] (setting [5]) is 45%.
Turning to `CN1CCC(n2cc(-c3ccn4c(-c5cccc(NC(=O)NCC(F)(F)F)c5)cnc4c3)cn2)CC1` [Example 6, 1-(3-{7-[1-(1-Methyl-piperidin-4-yl)-1H-pyrazol-4-yl]imidazo[1,2-a]pyridin-3-yl}phenyl)-3-(2,2,2-trifluoroethyl)urea], the IC50 in test [1] (setting [4]) amounted to 0.87 µM; in test [2], 0.0092 µM.
In the case of `O=C(NCC(F)(F)F)Nc1cccc(-c2cnc3cc(-c4ccc(N5CCCCC5)nn4)ccn23)c1` [Example 7, 1-{3-[7-(6-Piperidin-1-yl-pyridazin-3-yl)-imidazo[1,2-a]pyridin-3-yl]phenyl}-3-(2,2,2-trifluoroethyl)urea], the IC50 was determined as 0.86 µM in test [1] (setting [4]) and 0.0063 µM in test [2].
Take `O=C(NCC(F)(F)F)Nc1cccc(-c2cnc3cc(-c4nc5c(s4)CCC5)ccn23)c1` [Example 8, 1-{3-[7-(5,6-Dihydro-4H-cyclopentathiazol-2-yl)imidazo[1,2-a]pyridin-3-yl]-phenyl}-3-(2,2,2-trifluoroethyl)urea]: the values for the IC50 in test [1] (setting [4]) and in test [2] were 0.45 µM and 0.012 µM, respectively.
In the same order, the values of `CN1CCN(c2ccc(-c3ccn4c(-c5cccc(NC(=O)NCC(F)(F)F)c5)cnc4c3)nn2)CC1` [Example 12, 1-(3-{7-[6-(4-Methylpiperazin-1-yl)pyridazin-3-yl]imidazo[1,2-a]pyridin-3-yl}phenyl)-3-(2,2,2-trifluoroethyl)urea] are 3.7 µM and 0.041 µM.
For the compound `Cn1cncc1C#Cc1ccn2c(-c3cccc(NC(=O)NCC(F)(F)F)c3)cnc2c1` [Example 13B, 1-{3-[7-(3-Methyl-3H-imidazol-4-ylethynyl)-imidazo[1,2-a]pyridin-3-yl]-phenyl}-3-(2,2,2-trifluoro-ethyl)-urea dihydrochloride], the inhibition at 10 µM in test [1] (setting [3]) came to 44%. Further, the IC50 in test [2] worked out at 0.031 µM.
`CN(C)CC#Cc1ccn2c(-c3cccc(NC(=O)NCC(F)(F)F)c3)cnc2c1` [Example 14, 1-{3-[7-(3-Dimethylaminoprop-1-ynyl)imidazo[1,2-a]pyridin-3-yl]phenyl}-3-(2,2,2-trifluoroethyl)urea]: the IC50 was 1.4 µM in test [1] (setting [4]) and 0.1 µM in test [2].
In the case of `O=C(NCC(F)(F)F)Nc1cccc(-c2cnc3cc(C#Cc4ccsc4)ccn23)c1` [Example 16, 1-[3-(7-Thiophen-3-ylethynylimidazo[1,2-a]pyridinyl)phenyl]-3-(2,2,2-trifluoroethyl)urea], the IC50 amounted to 0.83 µM in test [1] (setting [4]) and 0.11 µM in test [2].
The like results for `O=C(NCC(F)(F)F)Nc1cccc(-c2cnc3cc(-c4nnc(C(F)(F)F)s4)ccn23)c1` [Example 17, 1-(2,2,2-Trifluoroethyl)-3-{3-[7-(5-trifluoromethyl[1,3,4]thiadiazol-2-yl)-imidazo[1,2-a]pyridin-3-yl]phenyl}urea] were, in that order, 0.056 µM and 0.044 µM.
With `CC(O)C#Cc1ccn2c(-c3cccc(NC(=O)NCC(F)(F)F)c3)cnc2c1` (stereo not shown) [Example 18, 1-{3-[7-(3-Hydroxybut-1-ynyl)imidazo[1,2-a]pyridin-3-yl]phenyl}-3-(2,2,2-trifluoroethyl)urea formate], the IC50 was found to be 1.4 µM in test [1] (setting [6]) and 0.095 µM in test [2].
In the case of `O=C(NCC(F)(F)F)Nc1cccc(-c2cnc3cc(C#CCCO)ccn23)c1` [Example 19, 1-{3-[7-(4-Hydroxybut-1-ynyl)imidazo[1,2-a]pyridin-3-yl]phenyl}-3-(2,2,2-trifluoroethyl)urea], the IC50 in test [1] (setting [4]) was determined as 0.55 µM; in test [2], 0.13 µM.
Consider `Cc1ccc(-c2ccn3c(-c4cncc(NC(=O)NCC(F)(F)F)c4)cnc3c2)nn1` [Example 21, 1-{5-[7-(6-Methylpyridazin-yl)imidazo[1,2-a]pyridin-3-yl]pyridin-3-yl}-3-(2,2,2-trifluoroethyl)urea], for which the inhibition at 10 µM in test [1] (setting [3]) is 0%. For the same compound, in test [2], the IC50 stood at 0.41 µM.
For the compound `O=C(NCC(F)(F)F)Nc1cccc(-c2cnc3cc(-c4nnc(CCN5CCCCC5)s4)ccn23)c1` [Example 22, 1-(3-{7-[5-(2-Piperidin-1-ylethyl)-[1,3,4]thiadiazol-2-yl]imidazo[1,2-a]pyridin-3-yl}phenyl)-3-(2,2,2-trifluoroethyl)urea hydrochloride], the results for the IC50 in test [1] (setting [6]) and in test [2] were 1.1 µM and 0.0044 µM, respectively.
Consider `O=C(NCC(F)(F)F)Nc1cncc(-c2cnc3cc(-c4nncs4)ccn23)c1` [Example 24, 1-[5-(7-[1,3,4]Thiadiazol-2-ylimidazo[1,2-a]pyridin-3-yl)pyridin-3-yl]-3-(2,2,2-trifluoroethyl)urea hydrochloride], for which the inhibition at 10 µM in test [1] (setting [3]) amounted to 2.2%. The IC50 in test [2] worked out at 0.57 µM.
Turning to `O=C(NCC(F)(F)F)Nc1cccc(-c2cnc3cc(C#CCO)ccn23)c1` [Example 26, 1-{3-[7-(3-Hydroxyprop-1-ynyl)imidazo[1,2-a]pyridin-3-yl]phenyl}-3-(2,2,2-trifluoroethyl)urea], the IC50 in test [1] (setting [4]) came to 0.77 µM; in test [2], 0.27 µM.
On to `Cc1cc(=O)n2nc(-c3ccn4c(-c5cccc(NC(=O)NCC(F)(F)F)c5)cnc4c3)sc2n1` [Example 27, 1-{3-[7-(7-Methyl-5-oxo-5H-[1,3,4]thiadiazolo[3,2-a]pyrimidin-2-yl)imidazo[1,2-a]pyridin-3-yl]phenyl}-3-(2,2,2-trifluoroethyl)urea], for which, in test [2], the IC50 worked out at 0.52 µM.
With `O=C(Nc1cccc(-c2cnc3cc(-c4ccc(F)cc4)ccn23)c1)NC1CC1` [Example 28, 1-Cyclopropyl-3-{3-[7-(4-fluorophenyl)imidazo[1,2-a]pyridin-3-yl]phenyl}urea], the inhibition at 10 µM in test [1] (setting [3]) amounted to 35%. For the same compound, the IC50 in test [2] came to 0.17 µM.
For the compound `Cn1cc(-c2ccn3c(-c4cccc(NC(=O)NCC(F)(F)F)c4)cnc3c2)c(CN)n1` [Example 57, 1-{3-[7-(3-Aminomethyl-1-methyl-1H-pyrazol-4-yl)-imidazo[1,2-a]pyridin-3-yl]-phenyl}-3-(2,2,2-trifluoro-ethyl)-urea], in test [2] (setting [5]), the inhibition at 3 µM was 40%.
`O=C(NCC(F)(F)F)Nc1cccc(-c2cnc3cc(-c4ccc(N5CCC5)nn4)ccn23)c1` [Example 82, 1-{3-[7-(6-Azetidin-1-yl-pyridazin-3-yl)-imidazo[1,2-a]pyridin-3-yl]-phenyl}-3-(2,2,2-trifluoro-ethyl)-urea hydrochloride]: in test [2], the IC50 is 0.0067 µM.
On the same count and under the same terms, with `O=C(NCC(F)(F)F)Nc1cccc(-c2cnc3cc(-c4ccncc4)ccn23)c1` [Example 83, 1-[3-(7-Pyridin-4-yl-imidazo[1,2-a]pyridin-3-yl)-phenyl]-3-(2,2,2-trifluoro-ethyl)-urea] the figure was 0.012 µM.
In the case of `Nc1ccn2c(-c3cccc(NC(=O)NCC(F)(F)F)c3)cnc2c1` [Example 115, 1-[3-(7-Aminoimidazol[1,2-a]pyridin-3-yl)phenyl]-3-(2,2,2-trifluoroethyl)urea], the inhibition at 10 µM in test [2] (setting [5]) worked out at 0%.
For the compound `Cc1nccn1-c1ccn2c(-c3cccc(NC(=O)NCC(F)(F)F)c3)cnc2c1` [Example 116, 1-{3-[7-(2-Methylimidazol-1-yl)-1,7-dihydroimidazol[1,2-a]pyridin-3-yl]-phenyl}-3-(2,2,2-trifluoroethyl)urea], in test [2], the IC50 came to 1.9 µM.
